Values quoted from earlier work as cited in patent US20220023306A1, “USE OF A PPAR-DELTA AGONIST IN THE TREATMENT OF FATTY ACID OXIDATION DISORDERS (FAOD)” (Reneo Pharmaceuticals, Inc., priority 2019, published 2022).
Read-outs that look alike come from different tables or passages of the source.

Tests used:
[1] = system: VLCAD; settings: VLCAD deficient cell line FB833; cited from earlier work
[2] = system: control myoblasts; settings: cited from earlier work
[3] = system: CPT2-deficient myoblasts; settings: cited from earlier work; for FAO: CPT2-deficient myoblasts
[4] = system: fibroblasts derived from patients with VLCAD, LCHAD and TFP deficiencies; settings: cited from earlier work
[5] = system: CPT2; settings: cultured patient fibroblasts carrying mild mutations of the CPT2 gene; cited from earlier work

Cc1cc(SCc2sc(-c3ccc(C(F)(F)F)c(F)c3)nc2C)ccc1OCC(=O)O [GW0742, [4-[[[2-[3-Fluoro-4-(trifluoromethyl)phenyl]-4-methyl-5-thiazolyl]methyl]thio]-2-methylphenoxy]acetic acid]
VLCAD enzyme activity [1]: increase

Cc1cc(SCc2sc(-c3ccc(C(F)(F)F)cc3)nc2C)ccc1OCC(=O)O [GW501516, 2-[2-Methyl-4-[[[4-methyl-2-[4-(trifluoromethyl)phenyl]-5-thiazolyl]methyl]thio]phenoxy]acetic acid]
VLCAD enzyme activity [1]: increase

Cc1cc(SCc2sc(-c3ccc(C(F)(F)F)c(F)c3)nc2C)ccc1OCC(=O)O [GW 072]
FAO [2]: stimulated
long-chain acylcarnitine production ([3]; CPT2-deficient cells): normalized
residual CPT2 activity ([3]; CPT2-deficient cells): increased
FAO [3]: restore

CC(C)(Sc1ccc(CCN(CCCCC2CCCCC2)C(=O)NC2CCCCC2)cc1)C(=O)O [GW 7647]
FAO [3]: no effect

CCCc1c(OCCCOc2ccc(OCC(=O)O)cc2)ccc(C(C)=O)c1O [L-165,0411, [4-[3-(4-Acetyl-3-hydroxy-2-propylphenoxy)propoxy]phenoxy]acetic acid]
VLCAD enzyme activity [1]: increase

Cc1cnc(-c2ccc(C(F)(F)F)cc2)n1Cc1ccccc1OCCC[C@@H](C)CC(=O)O [MA-0211]
fatty acid oxidation ([4]; fibroblasts from patients with LCHAD deficiency): improvements
fatty acid oxidation ([4]; fibroblasts from patients with TFP deficiency): improvements
fatty acid oxidation ([4]; fibroblasts from patients with VLCAD deficiency): improvements

CC(C)(Oc1ccc(CCNC(=O)c2ccc(Cl)cc2)cc1)C(=O)O [bezafibrate, 2-(4-{2-[(4-Chlorobenzoyl)amino]ethyl}phenoxy)-2-methylpropanoic acid]
enhancement of deficient enzyme (CPT2) [5]: enhancement
FAO [3]: restore
